Publication PMC12113707, “Microwave Assisted Synthesis of Antioxidant Dihydro-Pyrazole Hybrids as Possible Lipoxygenase Inhibitors” (Molecules, 2025)

Columns and labels:
[1] = Experimental lipophilicity RM by reverse phase thin layer chromatography (RP-TLC); format: physicochemical; details: methanol-water mobile phase
Method: Lipophilicity is a main physicochemical parameter for bioactive molecules, linking solubility, ligand-target binding interactions, membrane permeability absorption, distribution, bioavailability, metabolism, elimination and toxicological effects (ADMET), playing an important role in biological activity. The experimental values of lipophilicity RM were determined by reverse phase thin layer chromatography. For the experimental determination of lipophilicity the hydrophilic-lipid phase system is a mixture of methanol- water (90/10%). The theoretical lipophilicity values are determined by the Bioloom program (http://biobyte.com/bb/prod/bioloom.html, accessed on 8 April 2024) (Table 1). According to the calculated clog P values, the most lipophilic compounds are 3c, 3d and 3f while the less lipophilic ones are compounds 5a and 5b.
Melting points were determined on a MEL-Temp II (Lab. Devices, Holliston, MA, USA). In vitro tests were carried out using a UV-Vis spectra and recorded on a Perkin-Elmer 554 double-beam spectrophotometer (Perkin-Elmer Corporation Ltd., Lane Beaconsfield, Bucks, UK). Infrared spectra (KBr pellets) were recorded with Perkin-Elmer 597 spectrophotometer (Perkin-Elmer Corporation Ltd., Lane Beaconsfield, Bucks, UK). The ^1H […] Magnetic Resonance (^1H-NMR) spectra were acquired on an Agilent 500/54 (DD2) at 500 MHz in CDCl3 using tetramethylsilane as an internal standard. Agilent 500/54 (DD2) ^13C NMR spectra were acquired at 125 MHz in CDCl3 solutions with tetramethylsilane serving as an internal reference. Coupling constants J are expressed in Hz, and chemical shifts are reported in ppm. Thermo Fisher Scientific Inc., Waltham, MA, USA, used MeOH as the solvent to calculate mass spectra using an LC-PDA-MS Thermo Finnigan system (LC Pump Plus, Autosampler, Surveyor PDA Plus Detector) interfaced with an ESI MSQ Plus (Thermo Finnigan). Thin-layer chromatography using 5554 F254 Silica gel/TLC cards (Merck and Fluka Chemie GmbH Buchs, Steinheim, Switzerland) was used to monitor the reaction progress. Silica gel 60 F254 plates with a diameter of 2 mm were utilized for preparative thin layer chromatography (prep TLC) by Merck KgaA (ICH078057). Merck (20 × 20 cm) plates were used for the experimental assessment of the lipophilicity using reverse phase thin-layer chromatography (RP-TLC) TLC-Silica gel 60 F254 DC Kieselgel.
In this experiment, TLC silica gel 60 F254 1.05715.0001 commercial glass plates from Merck were used. The plates were first immersed in a 5% v/v solution of liquid paraffin in petroleum ether and left for 90 s to become completely impregnated with the stable lipophilic phase. They were then activated by standing for 30 min in an oven at 40 °C and kept there until the time of use. A 70% v/v MeOH/H2O mixture was used as the mobile phase. The mobile phase was saturated with a few drops of liquid paraffin before being used. The spots of the compounds were placed on the plate at a distance of 2 cm from the edges of the plate and also from each other. The development of the spots on the plates was carried out in closed chromatography chambers where the atmosphere is saturated with the mobile phase at room temperature. At the end of development, the solvent-formed front was marked and the plates are dried at 80 °C for about 20–30 min. The appearance of the spots was made under an ultraviolet light lamp. The Rf values were the average of 5–6 measurements for each compound and assuming that the compounds will have been rotated to different positions on the plates. The RM values were calculated from the corresponding Rf values according to the equation [67].RM = log [(1/Rf) − 1](1)

[2] = Interaction with the stable free radical DPPH (reducing activity); details: 517 nm
Method: In general, the compounds present moderate to good antioxidant activity. It seems that the dibenzylacetones present satisfactory antioxidant activity compared to the hybrids at 60 min (1b, 1d and 1f).
The tested compounds (0.1 mM final concentration) dissolved in DMSO were incubated with a solution of DPPH in absolute ethanol in absence of light. The absorbance at 20 and 60 min at 517 nm was recorded at room temperature. NDGA was used as the reference compound.

[3] = Inhibition of AAPH-induced linoleic acid peroxidation; details: 37 °C, 234 nm
Method: The ability of the compounds to inhibit AAPH-induced peroxidation of linoleic acid is another assay to investigate the antioxidant properties of the compounds. Azo compounds such as 2,2′-azobis dihydrochloride (2-amidinopropane) (AAPH) are capable of generating free radicals through spontaneous decomposition at 37 °C. The R- radicals react immediately with air-oxygen to produce peroxy radicals. AAPH was therefore used as the radical initiator and sodium linoleate as substrate subjected to peroxidation. Measurements were carried out at 234 nm using a UV/V is spectrophotometer. Dichalcone 1i substituted with two phenyl groups presents the lowest lipophilicity. […] Therefore, hydrophilic substituents offer an increase in activity.
The interaction of free radicals with cell membrane lipids induces free radical chain reactions, a process called lipid peroxidation. 930 μL of a phosphate buffer solution (0.05 M, pH = 7.4), 10 μL of the sodium linolate solution (16 mM in a buffer solution of Tris-HCl pH = 9) and 10 μL of the tested compounds (stock solutions 100 μΜ) were mixed and the oxidative procedure started after the addition of 50 μL AAPH at 37 °C under air conditions. The conjugated diene’s absorbance was measured at 234 nm at a thermostable spectrophotometer (37 °C) according to previous publication.

[4] = molecular target: T1, soybean lipoxygenase (SLOX-1) (Glycine max, UniProt P08170); test: Inhibition of soybean lipoxygenase in vitro; format: biochemical; details: pH 9, sodium linoleate substrate; for inhibition at 100 µM: read-out: LOX% Inhibition, 100 μM (±SD); for IC50: read-out: LOX IC50 (μM) (±SD)
T1 construct: 200 μL of plant-derived lipoxygenase solution (1:9 × 10^−4 w/v, in saline); purchased Sigma Chemical, Co; host or cells: soybean (plant-derived)
T1 sequence (P08170 1-839): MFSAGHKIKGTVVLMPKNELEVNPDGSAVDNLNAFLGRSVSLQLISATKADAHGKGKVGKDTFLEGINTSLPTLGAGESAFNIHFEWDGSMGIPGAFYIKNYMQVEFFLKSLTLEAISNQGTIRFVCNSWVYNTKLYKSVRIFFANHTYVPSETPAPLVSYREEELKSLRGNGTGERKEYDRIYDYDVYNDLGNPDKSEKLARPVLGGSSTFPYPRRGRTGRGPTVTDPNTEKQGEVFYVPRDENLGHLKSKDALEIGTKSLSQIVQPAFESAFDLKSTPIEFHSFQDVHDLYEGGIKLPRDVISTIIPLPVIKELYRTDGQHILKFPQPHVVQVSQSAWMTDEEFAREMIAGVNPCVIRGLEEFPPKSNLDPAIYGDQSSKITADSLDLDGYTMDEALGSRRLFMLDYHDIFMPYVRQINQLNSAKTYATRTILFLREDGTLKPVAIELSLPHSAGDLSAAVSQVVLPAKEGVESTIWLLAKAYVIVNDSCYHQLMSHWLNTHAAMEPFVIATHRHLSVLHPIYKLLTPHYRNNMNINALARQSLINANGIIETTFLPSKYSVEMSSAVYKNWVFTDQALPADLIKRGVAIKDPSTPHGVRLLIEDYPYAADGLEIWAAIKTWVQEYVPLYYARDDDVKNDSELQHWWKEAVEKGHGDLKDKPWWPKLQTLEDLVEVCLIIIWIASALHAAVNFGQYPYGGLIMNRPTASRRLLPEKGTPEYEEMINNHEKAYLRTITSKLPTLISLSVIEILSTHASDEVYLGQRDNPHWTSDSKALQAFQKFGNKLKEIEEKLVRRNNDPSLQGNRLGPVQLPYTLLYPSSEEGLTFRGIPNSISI
Method: Soybean lipoxygenase SLOX-1 at pH 9 is used in vitro. During this assay linoleic acid sodium salt is converted to the corresponding 13-hydroperoxide. The reaction is recorded photometrically at 234 nm using the UV-based enzyme assay. […] It is known that soybean LOX inhibitory activity induced by NSAIDs is qualitatively quite similar to the inhibition observed on the rat mast cells LOX and this assay may be used as a qualitative or semi-quantitative screen for such activity.
To a quartz cell, add 790 μL of Tris-HCl pH = 9.0 buffer, 200 μL of plant-derived lipoxygenase solution (1:9 × 10^−4 w/v, in saline), 10 μL of the test compound solution and 100 μL of sodium linoleate solution (3 mM concentration). The absorbance was measured at 234 nm, where the change in absorbance due to the conversion of linoleic acid to […] was recorded. A solution of 790 μL of Tris-HCl pH = 9.0 buffer, 200 μL of a plant-derived lipoxygenase solution (1:9 × 10^−4 w/v, in saline), 10 μL of DMSO and 100 μL of sodium linoleate solution (3 mM concentration) was used as a control.

Structure (SMILES): Fc1ccc(/C=C/C2=NN(c3ccccc3)C(c3ccc(F)cc3)C2)cc1 (centres unmarked) [Compound 2b]
- RM ± SD [1]: 0.78 ± 0.065
- RA%, 100 μM, 20 min (±SD) [2]: 2 ± 0.1%
- RA%, 100 μM, 60 min (±SD) [2]: 15 ± 0.6%
- AAPH% Inhibition, 100 μM (±SD) [3]: 39 ± 0.3%
- inhibition at 100 µM [4]: 24 ± 1.9%

Structure (SMILES): FC(F)(F)c1ccc(/C=C/C2=NN(c3ccc(Br)cc3)C(c3ccc(C(F)(F)F)cc3)C2)cc1 (centres unmarked) [Compound 3f]
- RM ± SD [1]: 1.47 ± 0.044
- RA%, 100 μM, 20 min (±SD) [2]: 5 ± 0.4%
- RA%, 100 μM, 60 min (±SD) [2]: 14 ± 1.2%
- AAPH% Inhibition, 100 μM (±SD) [3]: 75 ± 2.7%
- inhibition at 100 µM [4]: 38 ± 2.6%

Structure (SMILES): N#Cc1ccc(N2N=C(/C=C/c3ccc(Br)cc3)CC2c2ccc(Br)cc2)cc1 (centres unmarked) [Compound 4c, (E)-4-(5-(4-bromophenyl)-3-(4-bromostyryl)-4,5-dihydro-1H-pyrazol-1-yl)-benzonitrile]
- RM ± SD [1]: 0.94 ± 0.069
- RA%, 100 μM, 20 min (±SD) [2]: 2 ± 0.1%
- AAPH% Inhibition, 100 μM (±SD) [3]: 59 ± 0.2%
- inhibition at 100 µM [4]: 17 ± 1.2%

Structure (SMILES): Brc1ccc(N2N=C(/C=C/c3ccccc3)CC2c2ccccc2)cc1 (centres unmarked) [Compound 3a, (E)-1-(4-bromophenyl)-5-phenyl-3-styryl-4,5-dihydro-1H-pyrazole]
- RM ± SD [1]: 1.11 ± 0.068
- RA%, 100 μM, 20 min (±SD) [2]: 10 ± 0.3%
- RA%, 100 μM, 60 min (±SD) [2]: 22 ± 0.9%
- AAPH% Inhibition, 100 μM (±SD) [3]: 75 ± 1.4%
- inhibition at 100 µM [4]: 51 ± 2.2%

Structure (SMILES): CN(C)c1ccc(/C=C/C2=NN(C(N)=O)C(c3ccc(N(C)C)cc3)C2)cc1 (centres unmarked) [Compound 5e, (E)-5-(4-dimethylaminophenyl)-3-(4-dimethylaminostyryl)-4,5-dihydro-1H-pyrazole-1-carboxamide]
- RM ± SD [1]: 0.28 ± 0.019
- RA%, 100 μM, 20 min (±SD) [2]: 20 ± 0.1%
- AAPH% Inhibition, 100 μM (±SD) [3]: 61 ± 0.9%
- inhibition at 100 µM [4]: 19 ± 0.4%

Structure (SMILES): FC(F)(F)c1ccc(/C=C/C2=NN(c3ccccc3)C(c3ccc(C(F)(F)F)cc3)C2)cc1 (centres unmarked) [Compound 2f]
- RM ± SD [1]: 1.31 ± 0.031
- RA%, 100 μM, 20 min (±SD) [2]: 5 ± 0.2%
- AAPH% Inhibition, 100 μM (±SD) [3]: 52 ± 2.5%
- inhibition at 100 µM [4]: 14 ± 0.8%

Structure (SMILES): Brc1ccc(/C=C/C2=NN(c3ccc(Br)cc3)C(c3ccc(Br)cc3)C2)cc1 (centres unmarked) [Compound 3c]
- RM ± SD [1]: 1.46 ± 0.049
- RA%, 100 μM, 20 min (±SD) [2]: 2 ± 0.1%
- RA%, 100 μM, 60 min (±SD) [2]: 24 ± 0.9%
- AAPH% Inhibition, 100 μM (±SD) [3]: 40 ± 1.8%
- IC50 [4]: 30 µM

Structure (SMILES): CN(C)c1ccc(/C=C/C2=NN(c3ccc(Br)cc3)C(c3ccc(N(C)C)cc3)C2)cc1 (centres unmarked) [Compound 3e]
- RM ± SD [1]: 1.25 ± 0.086
- RA%, 100 μM, 20 min (±SD) [2]: 30 ± 0.9%
- RA%, 100 μM, 60 min (±SD) [2]: 53 ± 0.9%
- AAPH% Inhibition, 100 μM (±SD) [3]: 80 ± 2.9%
- IC50 [4]: 20 µM

Structure (SMILES): NC(=O)N1N=C(/C=C/c2ccc(F)cc2)CC1c1ccc(F)cc1 (centres unmarked) [Compound 5b, (E)-5-(4-fluorophenyl)-3-(4-fluorostyryl)-4,5-dihydro-1H-pyrazole-1-carboxamide]
- RM ± SD [1]: 0.06 ± 0.004
- RA%, 100 μM, 20 min (±SD) [2]: 19 ± 0.1%
- AAPH% Inhibition, 100 μM (±SD) [3]: 8 ± 0.2%
- inhibition at 100 µM [4]: 39 ± 0.7%

Structure (SMILES): O=C(/C=C/c1ccc(F)cc1)/C=C/c1ccc(F)cc1 [Compound 1b, (1E,4E)-1,5-bis(4-fluorophenyl)-1,4-pentadien-3-one]
- RM ± SD [1]: 0.19 ± 0.001
- RA%, 100 μM, 20 min (±SD) [2]: 13 ± 0.6%
- RA%, 100 μM, 60 min (±SD) [2]: 100 ± 1.1%
- AAPH% Inhibition, 100 μM (±SD) [3]: 37 ± 0.1%
- inhibition at 100 µM [4]: 30 ± 0.1%

Structure (SMILES): O=C(/C=C/c1ccc(Br)cc1)/C=C/c1ccc(Br)cc1 [Compound 1c, (1E,4E)-1,5-bis(4-bromophenyl)-1,4-pentadien-3-oneone]
- RM ± SD [1]: 0.65 ± 0.034
- RA%, 100 μM, 60 min (±SD) [2]: 44 ± 1.6%
- AAPH% Inhibition, 100 μM (±SD) [3]: 61 ± 0.5%
- inhibition at 100 µM [4]: 28 ± 0.6%
